We go through 6 molecules from patent publication US20110015162A1, “15,16-Methylene-17-hydroxy-19-nor-21-carboxylic acid-steroid Y-lactone derivative, use thereof and medicinal products containing the derivative” (Bayer Schering Pharma Aktiengesellschaft, priority 2007, published 2011).

One test concerns the target T1, progesterone receptor (Homo sapiens, UniProt P06401).
T1 construct: made in house; host or cells: Hi5 insect cells (cytosol)
T1 sequence (P06401 1-933): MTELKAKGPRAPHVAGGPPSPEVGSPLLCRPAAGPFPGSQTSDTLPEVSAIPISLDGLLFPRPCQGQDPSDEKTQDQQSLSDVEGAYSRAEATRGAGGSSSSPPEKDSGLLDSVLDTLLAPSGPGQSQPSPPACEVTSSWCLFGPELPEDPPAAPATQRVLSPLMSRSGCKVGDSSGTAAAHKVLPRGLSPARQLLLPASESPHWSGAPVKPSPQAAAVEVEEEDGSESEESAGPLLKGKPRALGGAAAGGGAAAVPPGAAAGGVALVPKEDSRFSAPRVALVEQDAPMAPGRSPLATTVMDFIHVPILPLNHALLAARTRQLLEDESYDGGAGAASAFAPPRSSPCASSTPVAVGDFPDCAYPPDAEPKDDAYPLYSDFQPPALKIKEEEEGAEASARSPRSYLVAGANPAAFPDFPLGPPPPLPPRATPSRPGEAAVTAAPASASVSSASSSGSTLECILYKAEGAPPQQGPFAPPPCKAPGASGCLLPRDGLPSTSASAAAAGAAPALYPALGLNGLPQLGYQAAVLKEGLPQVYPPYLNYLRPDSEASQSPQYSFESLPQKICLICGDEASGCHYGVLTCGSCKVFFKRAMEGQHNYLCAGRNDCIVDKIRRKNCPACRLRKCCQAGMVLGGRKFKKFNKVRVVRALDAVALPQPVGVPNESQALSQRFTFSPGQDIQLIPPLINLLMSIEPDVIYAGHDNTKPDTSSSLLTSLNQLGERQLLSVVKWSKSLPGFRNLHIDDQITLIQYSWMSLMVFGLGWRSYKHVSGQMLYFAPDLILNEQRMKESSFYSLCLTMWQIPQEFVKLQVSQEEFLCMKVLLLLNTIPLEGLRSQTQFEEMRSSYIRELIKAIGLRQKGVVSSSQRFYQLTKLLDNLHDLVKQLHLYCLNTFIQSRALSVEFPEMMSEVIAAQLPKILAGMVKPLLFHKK
Kind of test: Progesterone receptor binding test. Particulars: for Progesterone receptor (PR) Competition factor: CF 1 = affinity of progesterone, CF >1 lower affinity, <1 higher affinity; for CF PR/CF MR: ratio of competition factors CF(PR) and CF(MR). As to the method: 1. Progesterone Receptor Binding Test:
(§1) Using cytosol from progesterone receptor-expressing insect cells (Hi5), competitive binding to the progesterone receptor was determined from the ability to displace ^3H-progesterone as reference substance from the receptor.

The target of test [1] is T2, fusion protein from the PR-ligand-binding domain and a Gal4-transactivation domain (Homo sapiens, UniProt P06401).
T2 construct: expressed in transfected cells; host or cells: CHO K1 cells, stably transfected
Kind of test: Progestational action by transactivation test (CHO K1 reporter cells). Particulars: for Emax: read-out: Progesterone receptor Agonism efficacy. The class given is cell-based. The method in brief: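 Progestational activity was measured in CHO K1 reporter cells stably expressing a fusion of the progesterone receptor ligand-binding domain with a Gal4-transactivation domain, plus a luciferase reporter under a Gal4-responsive promoter. Cells were plated at 4×10^4 per well in white 96-well plates with 3% DCC-FCS medium. Compounds were added eight hours later for 16 hours in triplicate. Luminescence was read after lysis and addition of luciferase substrate.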

A further test addresses T3, androgen receptor (Homo sapiens, UniProt P10275).
T3 sequence (P10275 1-920): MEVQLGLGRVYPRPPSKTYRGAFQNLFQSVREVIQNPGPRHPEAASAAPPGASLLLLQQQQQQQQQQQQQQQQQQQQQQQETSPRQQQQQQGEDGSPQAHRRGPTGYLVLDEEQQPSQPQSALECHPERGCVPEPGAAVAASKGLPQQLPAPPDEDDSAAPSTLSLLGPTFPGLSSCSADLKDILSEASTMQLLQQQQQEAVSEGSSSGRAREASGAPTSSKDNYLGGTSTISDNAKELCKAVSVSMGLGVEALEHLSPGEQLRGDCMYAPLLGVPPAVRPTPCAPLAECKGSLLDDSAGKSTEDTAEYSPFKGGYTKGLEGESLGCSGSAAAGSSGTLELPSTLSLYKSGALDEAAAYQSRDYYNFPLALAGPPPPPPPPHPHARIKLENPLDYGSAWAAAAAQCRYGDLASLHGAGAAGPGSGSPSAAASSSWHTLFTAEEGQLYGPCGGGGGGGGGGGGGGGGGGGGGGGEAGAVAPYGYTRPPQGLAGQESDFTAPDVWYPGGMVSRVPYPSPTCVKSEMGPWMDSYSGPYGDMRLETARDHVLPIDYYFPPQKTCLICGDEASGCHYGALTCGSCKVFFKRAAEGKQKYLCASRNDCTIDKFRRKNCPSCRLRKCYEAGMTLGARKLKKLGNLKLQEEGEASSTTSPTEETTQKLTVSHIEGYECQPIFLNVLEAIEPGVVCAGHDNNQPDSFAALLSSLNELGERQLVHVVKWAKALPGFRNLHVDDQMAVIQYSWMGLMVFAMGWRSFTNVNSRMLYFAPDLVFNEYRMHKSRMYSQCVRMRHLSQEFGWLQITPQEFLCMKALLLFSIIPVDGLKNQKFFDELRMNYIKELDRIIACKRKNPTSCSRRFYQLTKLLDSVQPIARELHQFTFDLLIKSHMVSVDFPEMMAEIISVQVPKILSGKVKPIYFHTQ
Kind of test: Androgen receptor binding test. Also on record: expressed in transfected cells. The procedure:
as §1
3. Androgen Receptor Binding Test: […]

[2] abbreviates: displacement of 3H-progesterone, cytosol from PR-expressing insect cells (Hi5), read-out: Progesterone receptor (PR) IC50.
The mark [3] stands for this setting: CHO K1 reporter cells, 16 hours incubation, read-out: Progesterone receptor Agonism EC50.
Where [4] appears, read: CHO K1 reporter cells, 16 hours incubation.
Setting [5] is: reference substance 3H-testosterone, cytosol from AR-expressing insect cells (Hi5), read-out: Androgen receptor IC50.

Where two headings read alike, the source gives them in different places.

T2 sequence (P04386 1-147 partner limits assumed, one chain of several): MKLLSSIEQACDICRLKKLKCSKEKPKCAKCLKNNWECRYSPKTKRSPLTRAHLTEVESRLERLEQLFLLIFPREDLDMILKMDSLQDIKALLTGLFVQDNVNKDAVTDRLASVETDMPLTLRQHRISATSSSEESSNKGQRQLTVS

As to `C[C@]12CC[C@H]3[C@@H](C[C@@H](CO)C4=CC(=O)CC[C@@H]43)[C@@H]1[C@@H]1C[C@@H]1[C@@]21C=CC(=O)O1` [Example 21, 17β-Hydroxy-6β-hydroxymethylene-15β,16β-methylene-19-nor-17α-pregna-4,20(Z)-dien-3-one-21-carboxylic acid γ-lactone], the “Progesterone receptor (PR) Competition factor” value (“Progesterone receptor” for short) on progesterone receptor is on record as 159.27. Further, the IC50 (usually the concentration that gives 50% inhibition) at progesterone receptor (setting [2]) amounted to 4.8 µM; at androgen receptor (setting [5]), 1 µM. Moreover, the 50% effective concentration (EC50) (as a rule, the midpoint of the concentration-response curve) in test [1] (setting [3]) came to 0.78 µM. Also, the Emax in test [1] (setting [4]) worked out at 21%.

In the case of `C[C@@H]1CC2=CC(=O)CC[C@@H]2[C@H]2CC[C@@]3(C)[C@@H]([C@H]4C[C@H]4[C@@]34C=CC(=O)O4)[C@@H]21` [Example 14A, 17β-Hydroxy-7α-methyl-15α,16α-methylene-19-nor-17α-pregna-4,20(Z)-dien-3-one-21-carboxylic acid γ-lactone], on progesterone receptor, the IC50 came out at 0.049 µM, the “Progesterone receptor” value is 2.04 and the “CF PR/CF MR” value was found to be 1.57. Moreover, the half-maximal effective concentration (EC50) in test [1] stood at 0.016 µM. Further, the Emax in test [1] (CHO-K1, 16 h) is 86.3%. Besides, the IC50 at androgen receptor is 0.074 µM.

On to `C[C@]12CC[C@H]3[C@@H](C=CC4=CC(=O)CC[C@@H]43)[C@@H]1[C@H]1C[C@H]1[C@@]21C=CC(=O)O1` [Example 13, 17β-Hydroxy-15α,16α-methylene-19-nor-17α-pregna-4,6,20(Z)-trien-3-one-21-carboxylic acid γ-lactone], for which, at progesterone receptor, the “Progesterone receptor” value worked out at 7.89 and the “CF PR/CF MR” value came out at 4.93. Also, on progesterone receptor (setting [2]), the IC50 is 0.19 µM. In addition, the EC50 in test [1] (setting [3]) was 0.15 µM. Besides, the Emax in test [1] (setting [4]) came out at 37.1%. For the same molecule, the 50% inhibitory concentration (IC50) at androgen receptor (setting [5]) was 5.1 µM.

For the molecule `C[C@]12CC[C@H]3[C@@H](CCC4=CC(=O)CC[C@@H]43)[C@@H]1[C@H]1C[C@H]1[C@@]21C=CC(=O)O1` [Example 12, 17β-Hydroxy-15α,16α-methylene-19-nor-17α-pregna-4,20(Z)-dien-3-one-21-carboxylic acid γ-lactone], on progesterone receptor, the IC50 is 0.049 µM, the “Progesterone receptor” value is 1.50 and the “CF PR/CF MR” value was 0.52. The same molecule came in with a 50% effective concentration (EC50) in test [1] of 0.0004 µM. Moreover, the Emax in test [1] (CHO-K1, 16 h) stood at 75.5%. At androgen receptor, this molecule returned an IC50 of 0.2 µM.

As for `CC[C@]12CC[C@H]3[C@@H](C=CC4=CC(=O)CC[C@@H]43)[C@@H]1[C@@H]1C[C@@H]1[C@@]21C=CC(=O)O1` [Example 3, 17β-Hydroxy-18-methyl-15β,16β-methylene-19-nor-17α-pregna-4,6,20(Z)-trien-3-one-21-carboxylic acid γ-lactone], on progesterone receptor, the IC50 was 0.072 µM, the “Progesterone receptor” value came to 2.72 and the “CF PR/CF MR” value is recorded as 1.81. The same molecule gave an EC50 in test [1] of 0.0014 µM. The Emax in test [1] (CHO-K1, 16 h) worked out at 34.2%. The IC50 on androgen receptor is 1.3 µM.

Regarding `C[C@@H]1CC2=CC(=O)CC[C@@H]2[C@H]2CC[C@@]3(C)[C@@H]([C@@H]4C[C@@H]4[C@@]34C=CC(=O)O4)[C@@H]21` [Example 23A, 17β-Hydroxy-7α-methyl-15β,16β-methylene-19-nor-17α-pregna-4,20(2)-dien-3-one-21-carboxylic acid γ-lactone], on progesterone receptor, the IC50 came to 0.12 µM, the “Progesterone receptor” value was determined as 3.79 and the “CF PR/CF MR” value is given as 1.99. In test [1], this molecule came in with an EC50 of 0.021 µM. For the same molecule, in test [1] (CHO-K1, 16 h), the Emax came to 140%. On androgen receptor, this molecule had an IC50 of 0.081 µM.
